Laboratory results from patent US20260078119A1, “DEGRADER COMPOUNDS AND USES THEREOF” (Bristol-Myers Squibb Company, priority 2024, published 2026).

Columns and labels:
CAL-51 cells = test: CAL-51 Cell Proliferation Assay; assay type: cell-based; conditions: for EC50: Homo sapiens, 120 hours incubation, 10-point dose response, 4-fold dilutions starting at 10 μM, Cell-Titer-Glo, read-out: CAL-51 Prolif EC50; for CAL-51 Prolif Ymin: minimal percent of DMSO control observed in the concentrations tested (Ymin-obs), 120 hours
In short: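 EC50 comes from a four-parameter logistic fit of blank-corrected, DMSO-normalised CellTiter-Glo signal after 120 h growth (37 °C, 350 cells/well, RPMI complete medium). Compounds ran as 10-point 4-fold series starting at 10 μM, duplicate, 0.1% DMSO. Ymin-obs records the minimal percent of DMSO control observed.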

FAK = target: T1, FAK (Homo sapiens, UniProt Q05397); test: FAK-HiBiT Degradation Assay; assay type: cell-based; conditions: for DC50: JHH-4-FAK-HiBiT clone d01 cells, two hours incubation, 10-point dose response, 3-fold dilution starting at 1 μM, Nano-Glo HiBiT luminescence, read-out: FAK HiBiT EC50; for FAK HiBiT Ymin: lower limit of the four parameter fit (value A), Ymax derived using DMSO control, JHH-4-FAK-HiBiT cells, two hours
T1 construct: homozygous knock-in of a HiBiT tag (Promega Corporation, Madison, WI) to the C-terminus of the FAK gene in its natural genomic locus; endogenous in cells; host or cells: JHH-4-FAK-HiBiT clone d01 (CRISPR-Cas9 knock-in at the endogenous locus)
T1 sequence (Q05397 whole entry): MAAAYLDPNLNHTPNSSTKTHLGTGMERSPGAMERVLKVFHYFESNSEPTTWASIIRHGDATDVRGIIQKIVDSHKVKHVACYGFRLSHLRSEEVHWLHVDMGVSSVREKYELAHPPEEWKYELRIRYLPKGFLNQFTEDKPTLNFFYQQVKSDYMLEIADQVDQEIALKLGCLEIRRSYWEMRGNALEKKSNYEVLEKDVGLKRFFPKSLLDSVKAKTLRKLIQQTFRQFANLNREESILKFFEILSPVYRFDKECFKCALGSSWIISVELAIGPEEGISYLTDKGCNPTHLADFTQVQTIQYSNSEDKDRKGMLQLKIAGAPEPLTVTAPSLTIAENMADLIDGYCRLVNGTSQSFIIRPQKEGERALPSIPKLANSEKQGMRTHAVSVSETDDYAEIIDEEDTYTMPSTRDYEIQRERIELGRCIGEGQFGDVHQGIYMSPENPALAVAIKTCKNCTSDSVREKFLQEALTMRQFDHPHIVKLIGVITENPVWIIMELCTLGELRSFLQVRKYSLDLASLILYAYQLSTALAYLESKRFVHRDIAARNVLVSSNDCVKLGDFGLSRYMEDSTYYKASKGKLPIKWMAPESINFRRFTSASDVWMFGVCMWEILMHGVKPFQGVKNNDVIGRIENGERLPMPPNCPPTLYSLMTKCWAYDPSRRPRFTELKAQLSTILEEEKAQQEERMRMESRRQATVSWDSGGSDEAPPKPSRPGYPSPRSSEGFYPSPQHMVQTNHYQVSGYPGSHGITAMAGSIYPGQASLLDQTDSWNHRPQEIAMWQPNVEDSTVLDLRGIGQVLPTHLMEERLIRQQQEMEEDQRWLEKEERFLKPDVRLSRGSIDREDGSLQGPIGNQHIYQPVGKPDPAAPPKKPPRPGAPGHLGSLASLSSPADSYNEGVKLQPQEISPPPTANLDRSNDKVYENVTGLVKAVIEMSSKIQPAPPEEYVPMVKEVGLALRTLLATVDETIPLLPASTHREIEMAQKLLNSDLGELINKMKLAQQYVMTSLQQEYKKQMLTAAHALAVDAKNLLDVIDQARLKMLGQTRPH
In short: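 Degradation read out by HiBiT lytic luminescence after 2 h compound exposure (top concentration 1 μM, 3-fold, 10 points) in JHH-4 clone d01 bearing endogenous FAK-HiBiT knock-in. Four-parameter logistic fit gave EC50 and Ymin; DMSO wells defined Ymax.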

| DC50 (FAK) | FAK HiBiT Ymin (FAK) | Structure (SMILES) | EC50 (CAL-51 cells) | CAL-51 Prolif Ymin (CAL-51 cells) |
| --- | --- | --- | --- | --- |
| 0.82 nM | 9.44 | CCOc1cnc(-c2cc(N3CC(F)C3)nc3c2cnn3Cc2ccc3c(c2)CN([C@H]2CCC(=O)NC2=O)C3=O)c(C(F)(F)F)c1 [Example 32, (3S)-3-[5-({4-[5-ethoxy-3-(trifluoromethyl)pyridin-2-yl]-6-(3-fluoroazetidin-1-yl)-1H-pyrazolo[3,4-b]pyridin-1-yl}methyl)-1-oxo-2,3-dihydro-1H-isoindol-2-yl]piperidine-2,6-dione] | 0.44 nM | 9.16 |
| 0.55 nM | 9.05 | O=C1CCC(N2Cc3cc(Cn4ncc5c(-c6ncc(Cl)cc6Cl)c(F)c(N6CC(F)C6)nc54)ccc3C2=O)C(=O)N1 (centres unmarked) [Example 8, 3-(5-{[4-(3,5-dichloropyridin-2-yl)-5-fluoro-6-(3-fluoroazetidin-1-yl)-1H-pyrazolo[3,4-b]pyridin-1-yl]methyl}-1-oxo-2,3-dihydro-1H-isoindol-2-yl)piperidine-2,6-dione] | 0.85 nM | 17.44 |
| 0.97 nM | 10.02 | O=C1CCC(N2Cc3cc(Cn4ncc5c(-c6ncc(Cl)cc6Cl)cc(N6CC(F)C6)nc54)ccc3C2=O)C(=O)N1 (centres unmarked) [Example 35, 3-(5-{[4-(3,5-dichloropyridin-2-yl)-6-(3-fluoroazetidin-1-yl)-1H-pyrazolo[3,4-b]pyridin-1-yl]methyl}-1-oxo-2,3-dihydro-1H-isoindol-2-yl)piperidine-2,6-dione] | 0.59 nM | 21.28 |
| 1.76 nM | 6.88 | CC(C)Nc1cc(-c2ncc(C(F)(F)F)cc2Cl)c2cnn(Cc3ccc4c(c3)CN([C@H]3CCC(=O)NC3=O)C4=O)c2n1 [Example 45, (3S)-3-[5-({4-[3-chloro-5-(trifluoromethyl)pyridin-2-yl]-6-[(propan-2-yl)amino]-1H-pyrazolo[3,4-b]pyridin-1-yl}methyl)-1-oxo-2,3-dihydro-1H-isoindol-2-yl]piperidine-2,6-dione] | 0.76 nM | 30.48 |
| 13 nM | 5.32 | O=C1CC[C@@H](N2Cc3cc(Cn4ncc5c(-c6ncc(C(F)(F)F)cc6Cl)cc(N6CC(F)C6)nc54)ccc3C2=O)C(=O)N1 (single isomer, unassigned) [Example 87] | 2.17 nM | 38.15 |
| 15.5 nM | 16.43 | O=C1CCC(N2Cc3cc(Cn4ncc5c(-c6ncccc6Br)cc(N6CC(F)C6)nc54)ccc3C2=O)C(=O)N1 (centres unmarked) [Example 93, 3-(5-{[4-(3-bromopyridin-2-yl)-6-(3-fluoroazetidin-1-yl)-1H-pyrazolo[3,4-b]pyridin-1-yl]methyl}-1-oxo-2,3-dihydro-1H-isoindol-2-yl)piperidine-2,6-dione] | 9.36 nM | 36.26 |
| 95.4 nM | 40.50 | N#Cc1cnc(-c2cc(N3CC[C@H](O)C3)nc3c2cnn3Cc2ccc3c(c2)CN([C@H]2CCC(=O)NC2=O)C3=O)c(F)c1 [Example 121, 6-[1-({2-[(3S)-2,6-dioxopiperidin-3-yl]-1-oxo-2,3-dihydro-1H-isoindol-5-yl}methyl)-6-[(3S)-3-hydroxypyrrolidin-1-yl]-1H-pyrazolo[3,4-b]pyridin-4-yl]-5-fluoropyridine-3-carbonitrile] | 1360 nM | 75.47 |
| 7.95 nM | 23.15 | N#Cc1ccc(-c2c(F)c(N3CC(F)C3)nc3c2cnn3Cc2ccc3c(c2)CN([C@H]2CCC(=O)NC2=O)C3=O)nc1 [Example 75, 6-[1-({2-[(3S)-2,6-dioxopiperidin-3-yl]-1-oxo-2,3-dihydro-1H-isoindol-5-yl}methyl)-5-fluoro-6-(3-fluoroazetidin-1-yl)-1H-pyrazolo[3,4-b]pyridin-4-yl]pyridine-3-carbonitrile] | 9.67 nM | 52.27 |
